In brackets after ≈: the same amount, converted by molar mass. Several values for one entry are separate records, joined by “and”; a condition that tells them apart may be missing. Equal values may be shown once.
Legend:
[1] = tested on: S.pneumoniae ATCC 49619; format: cell-based, Streptococcus pneumoniae; details: ATCC 49619, Mueller-Hinton broth, 24 hr, 37°C, without replication; for MIC S.pneumoniae in the presence of 4% bovine serum albumin: 4% BSA added, macrobroth dilution; for MIC S.pneumoniae: CLSI macrobroth dilution, 5 x 10^5 CFU/mL
In short: (§1)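 Lipopeptoids, from stocks at 512 µg/mL in water (DMSO where needed), were serially doubled in cation-adjusted Mueller-Hinton broth and inoculated to approximately 5 x 10^5 CFU/mL. MIC read after 24 hr at 37°C.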

[2] = tested on: S.aureus ATCC 29213; format: cell-based, Staphylococcus aureus; details: ATCC 29213, Mueller-Hinton broth, 24 hr, 37°C, without replication; for MIC S.aureus in the presence of 4% bovine serum albumin: 4% BSA added, macrobroth dilution; for MIC S.aureus: CLSI macrobroth dilution, 5 x 10^5 CFU/mL
In short: as §1

[3] = tested on: MRSE CAN-ICU 61589; format: cell-based, methicillin-resistant S. epidermidis; details: CAN-ICU 61589, Mueller-Hinton broth, 24 hr, 37°C, without replication; for MIC MRSE in the presence of 4% bovine serum albumin: 4% BSA added, macrobroth dilution; for MIC MRSE: CLSI macrobroth dilution, 5 x 10^5 CFU/mL
In short: as §1

[4] = tested on: E.coli CAN-ICU 61714; format: cell-based, Escherichia coli; details: CAN-ICU 61714, Mueller-Hinton broth, 24 hr, 37°C, without replication; for MIC E.coli in the presence of 4% bovine serum albumin: 4% BSA added, macrobroth dilution; for MIC E.coli: CLSI macrobroth dilution, 5 x 10^5 CFU/mL
In short: as §1

[5] = tested on: E.coli CAN-ICU 63074; format: cell-based, Escherichia coli; details: CAN-ICU 63074, Mueller-Hinton broth, 24 hr, 37°C, without replication; for MIC E.coli in the presence of 4% bovine serum albumin: 4% BSA added, macrobroth dilution; for MIC E.coli: CLSI macrobroth dilution, 5 x 10^5 CFU/mL
In short: as §1

[6] = tested on: E.coli ATCC 25922; format: cell-based, Escherichia coli; details: ATCC 25922, Mueller-Hinton broth, 24 hr, 37°C, without replication; for MIC E.coli in the presence of 4% bovine serum albumin: 4% BSA added, macrobroth dilution; for MIC E.coli: CLSI macrobroth dilution, 5 x 10^5 CFU/mL
In short: as §1

[7] = tested on: P.aeruginosa ATCC 27853; format: cell-based, Pseudomonas aeruginosa; details: ATCC 27853, Mueller-Hinton broth, 24 hr, 37°C, without replication; for MIC P.aeruginosa in the presence of 4% bovine serum albumin: 4% BSA added, macrobroth dilution; for MIC P.aeruginosa: CLSI macrobroth dilution, 5 x 10^5 CFU/mL
In short: as §1

[8] = tested on: MRSA ATCC 33592; format: cell-based, methicillin-resistant S. aureus; details: ATCC 33592, Mueller-Hinton broth, 24 hr, 37°C, without replication; for MIC MRSA in the presence of 4% bovine serum albumin: 4% BSA added, macrobroth dilution; for MIC MRSA: CLSI macrobroth dilution, 5 x 10^5 CFU/mL
In short: as §1

[9] = tested on: MSSE 81388 CANWARD 2008; format: cell-based, methicillin-susceptible S. epidermidis; details: 81388 CANWARD 2008, Mueller-Hinton broth, 24 hr, 37°C, without replication; for MIC MSSE in the presence of 4% bovine serum albumin: 4% BSA added, macrobroth dilution; for MIC MSSE: CLSI macrobroth dilution, 5 x 10^5 CFU/mL
In short: as §1

[10] = tested on: A. baumannii CAN-ICU 63169; format: cell-based, Acinetobacter baumannii; details: CAN-ICU 63169, Mueller-Hinton broth, 24 hr, 37°C, without replication; for MIC A. baumannii in the presence of 4% bovine serum albumin: 4% BSA added, macrobroth dilution; for MIC A. baumannii: CLSI macrobroth dilution, 5 x 10^5 CFU/mL
In short: as §1

[11] = tested on: ovine erythrocytes; assay: Haemolytic assay; format: cell-based, sheep; details: ovine erythrocytes in Tris buffered saline, 30 minutes, absorbance of supernatant at 540 nm
In short: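 Washed sheep erythrocytes in Tris-buffered saline exposed to compound (50 μg/mL–1 mg/mL; final 4.08 x 10^8 cells/mL) for 30 min. After centrifugation, supernatant absorbance at 540 nm gave % haemolysis; 0.5% ammonium chloride as positive control.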

[12] = tested on: K.pneumoniae ATCC 13883; format: cell-based, Klebsiella pneumoniae; details: ATCC 13883, Mueller-Hinton broth, 24 hr, 37°C, without replication; for MIC K.pneumoniae in the presence of 4% bovine serum albumin: 4% BSA added, macrobroth dilution; for MIC K.pneumoniae: CLSI macrobroth dilution, 5 x 10^5 CFU/mL
In short: as §1

SMILES | MIC S.pneumoniae in the presence of 4% bovine serum albumin [1] | MIC S.pneumoniae [1] | MIC S.aureus in the presence of 4% bovine serum albumin [2] | MIC S.aureus [2] | MIC MRSE in the presence of 4% bovine serum albumin [3] | MIC MRSE [3] | MIC E.coli in the presence of 4% bovine serum albumin [4] | MIC E.coli [4] | MIC E.coli in the presence of 4% bovine serum albumin [5] | MIC E.coli [5] | MIC E.coli in the presence of 4% bovine serum albumin [6] | MIC E.coli [6] | MIC P.aeruginosa in the presence of 4% bovine serum albumin [7] | MIC P.aeruginosa [7] | MIC MRSA in the presence of 4% bovine serum albumin [8] | MIC MRSA [8] | MIC MSSE in the presence of 4% bovine serum albumin [9] | MIC MSSE [9] | MIC A. baumannii in the presence of 4% bovine serum albumin [10] | MIC A. baumannii [10] | also measured
CCCCCCCCCCCCCCCC[N+](C)(C)C.[Cl-] [CTAC, Cetyltrimethylammonium chloride, reference compound] | 8 µg/mL | 2 µg/mL | 32 µg/mL | 1 µg/mL | 128 µg/mL | 2 µg/mL | 512 µg/mL | 32 µg/mL | 512 µg/mL | 16 µg/mL | 512 µg/mL | 16 µg/mL | >512 µg/mL | 128 µg/mL | 32 µg/mL | 1 µg/mL | 16 µg/mL | 0.5 µg/mL | 512 µg/mL | 32 µg/mL | Percent haemolysis at 100µg/mL of compound [11]: 77% and 77.05%; MIC K.pneumoniae in the presence of 4% bovine serum albumin [12]: 512 µg/mL; MIC K.pneumoniae [12]: 16 µg/mL
NCCCCN(CC(N)=O)C(=O)CNC(=O)CN(CCCCN)C(=O)CCC(F)(F)C(F)(F)C(F)(F)C(F)(F)C(F)(F)C(F)(F)C(F)(F)C(F)(F)F [F11-NlysGNlys] | 512 µg/mL | 256 µg/mL (≈ 318 µM) | 256 µg/mL | 32 µg/mL (≈ 39.8 µM) | 256 µg/mL | 32 µg/mL (≈ 39.8 µM) | 512 µg/mL | 512 µg/mL (≈ 636 µM) | >512 µg/mL | 512 µg/mL (≈ 636 µM) | 512 µg/mL | 512 µg/mL (≈ 636 µM) | >512 µg/mL | 512 µg/mL (≈ 636 µM) | 256 µg/mL | 64 µg/mL (≈ 79.5 µM) | 128 µg/mL | 32 µg/mL (≈ 39.8 µM) | >512 µg/mL | >512 µg/mL | Percent haemolysis at 100µg/mL of compound [11]: 4.84%; MIC K.pneumoniae in the presence of 4% bovine serum albumin [12]: >512 µg/mL; MIC K.pneumoniae [12]: >512 µg/mL
NCCCCN(CC(N)=O)C(=O)CN(CCCCN)C(=O)CN(CCCCN)C(=O)CCC(F)(F)C(F)(F)C(F)(F)C(F)(F)C(F)(F)C(F)(F)C(F)(F)C(F)(F)F [F11-NlysNlysNlys] | 512 µg/mL | 128 µg/mL (≈ 146 µM) | 128 µg/mL | 32 µg/mL (≈ 36.5 µM) | 256 µg/mL | 32 µg/mL (≈ 36.5 µM) | 256 µg/mL | 64 µg/mL (≈ 73.1 µM) | 512 µg/mL | 128 µg/mL (≈ 146 µM) | 256 µg/mL | 64 µg/mL (≈ 73.1 µM) | 512 µg/mL | 128 µg/mL (≈ 146 µM) | 256 µg/mL | 32 µg/mL (≈ 36.5 µM) | 128 µg/mL | 32 µg/mL (≈ 36.5 µM) | >512 µg/mL | >512 µg/mL | Percent haemolysis at 100µg/mL of compound [11]: 8.13%; MIC K.pneumoniae in the presence of 4% bovine serum albumin [12]: >512 µg/mL; MIC K.pneumoniae [12]: >512 µg/mL

Reference: paper PMC3402541, “Guanidylation and Tail Effects in Cationic Antimicrobial Lipopeptoids” (PLoS ONE, 2012)
